# Source: publication PMC10954709, “Structure of an open KATP channel reveals tandem PIP2 binding sites mediating the Kir6.2 and SUR1 regulatory interface” (Nature Communications, 2024)
# What was measured:
# SUR1/Kir6.2^Q52R channel = molecular target: T1, SUR1/Kir6.2^Q52R channel (UniProt P70673+Q09427, Q52R); assay: ATP inhibition, inside-out patch-clamp recording, COSm6 cells; format: biochemical, rat Kir6.2, hamster SUR1; settings: for % current: mean, relative to maximum current in K-INT
# T1 construct: expressed in transfected cells; host or cells: COSm6
# Description: (§1) For electrophysiology experiments, COSm6 cells were co-transfected with various combination of WT or mutant SUR1 and Kir6.2 cDNAs (SUR1 in pECE and Kir6.2 in pCDNA3) along with the cDNA for the Green Fluorescent Protein (to facilitate identification of transfected cells) using FuGENE® 6 (Promega). Mutant SUR1 and Kir6.2 were constructed using QuikChange (mutagenesis primers are shown in Supplementary Table 2). Cells were plated onto glass coverslips 24 h after transfection and recordings made in the following two days. All experiments were performed at room temperature. Micropipettes were pulled from non-heparinized Kimble glass (Fisher Scientific) on a horizontal puller (Sutter Instrument). Electrode resistance was typically 1-2 MΩ when filled with K-INT solution containing 140 mM KCl, 10 mM K-HEPES, 1 mM K-EGTA, 1 mM EDTA, pH 7.3. ATP was added as the potassium salt. Inside-out patches of cells bathed in K-INT were voltage-clamped with an Axopatch 1D amplifier (Axon Instruments). ATP or porcine brain PIP2 (Avanti Polar Lipids; prepared in K-INT and bath sonicated in ice water for 30 min before use) were added to K-INT as specified in the figure legend. All currents were measured at a membrane potential of −50 mV (pipette voltage = +50 mV). Data were analyzed using pCLAMP10 software (Axon Instrument). Off-line analysis was performed using Clampfit and GraphPad. Data were presented as mean ± standard error of the mean (S.E.M). ATP inhibition dose-response curves were obtained by fitting data to the Hill equation (Irel = 1/(1 + ([ATP]/IC50)^H)), where Irel is the current relative to the maximum currents in K-INT solution (expressed as % current in Fig. 7c and Supplementary Fig. 7a), IC50 is the ATP concentration that causes half-maximal inhibition, and H is the Hill coefficient. Note H was allowed to vary for the curves shown in Fig. 7c and Supplementary Fig. 7a.
# [1] = molecular target: T2, SUR1/Kir6.2^Q52R/R176A channel (UniProt P70673+Q09427, Q52R/R176A); assay: as above; format: biochemical, rat Kir6.2, hamster SUR1; settings: for % current: mean, relative to maximum current in K-INT
# T2 construct: expressed in transfected cells; host or cells: COSm6
# Description: as §1
# [2] = molecular target: T3, SUR1/Kir6.2^R176A channel (UniProt P70673+Q09427, R176A); assay: as above; format: biochemical, rat Kir6.2, hamster SUR1; settings: for % current: mean, relative to maximum current in K-INT
# T3 construct: expressed in transfected cells; host or cells: COSm6
# Description: as §1
# [3] = molecular target: T4, SUR1^K134A/Kir6.2 channel (UniProt P70673+Q09427, K134A); assay: as above; format: biochemical, rat Kir6.2, hamster SUR1; settings: for % current: mean, relative to maximum current in K-INT
# T4 construct: expressed in transfected cells; host or cells: COSm6
# Description: as §1
# [4] = molecular target: T5, SUR1^K134A/Kir6.2^Q52R channel (UniProt P70673+Q09427, K134A/Q52R); assay: as above; format: biochemical, rat Kir6.2, hamster SUR1; settings: for % current: mean, relative to maximum current in K-INT
# T5 construct: expressed in transfected cells; host or cells: COSm6
# Description: as §1
# [5] = molecular target: T6, SUR1^K134A/Kir6.2^Q52R/R176A channel (UniProt P70673+Q09427, K134A/Q52R/R176A); assay: as above; format: biochemical, rat Kir6.2, hamster SUR1; settings: for % current: relative to maximum current in K-INT
# T6 construct: expressed in transfected cells; host or cells: COSm6
# Description: as §1
# SUR1^W51C/Kir6.2 channel = molecular target: T7, SUR1^W51C/Kir6.2 channel (UniProt P70673+Q09427, W51C); assay: as above; format: biochemical, rat Kir6.2, hamster SUR1; settings: for % current: mean, relative to maximum current in K-INT
# T7 construct: expressed in transfected cells; host or cells: COSm6
# Description: as §1
# [6] = molecular target: T8, SUR1^W51C/Kir6.2^Q52R channel (UniProt P70673+Q09427, Q52R/W51C); assay: as above; format: biochemical, rat Kir6.2, hamster SUR1; settings: for % current: mean, relative to maximum current in K-INT
# T8 construct: expressed in transfected cells; host or cells: COSm6
# Description: as §1
# [7] = molecular target: T9, WT (SUR1/Kir6.2) KATP channels (UniProt P70673+Q09427); assay: as above; format: biochemical, rat Kir6.2, hamster SUR1; settings: for % current: mean, relative to maximum current in K-INT
# T9 construct: expressed in transfected cells; host or cells: COSm6
# Description: as §1
# Kir6.2^Q52R KATP channel = system: Kir6.2^Q52R KATP channel; parameters: method as in PMID 16123353, PMID 15583126; settings: Kir6.2^Q52R relative to WT; cited from earlier work
# [8] = system: KATP channel with engineered Kir6.2-Q52/SUR1-E203 charged amino acid pair; parameters: method as in PMID 22802363; settings: engineered charged amino acid pair enforcing Kir6.2-Q52 and SUR1-E203 interaction; cited from earlier work
# [9] = mean ± SEM, Hill fit, −50 mV, K-INT
# T4 sequence (Q09427 whole entry K134A): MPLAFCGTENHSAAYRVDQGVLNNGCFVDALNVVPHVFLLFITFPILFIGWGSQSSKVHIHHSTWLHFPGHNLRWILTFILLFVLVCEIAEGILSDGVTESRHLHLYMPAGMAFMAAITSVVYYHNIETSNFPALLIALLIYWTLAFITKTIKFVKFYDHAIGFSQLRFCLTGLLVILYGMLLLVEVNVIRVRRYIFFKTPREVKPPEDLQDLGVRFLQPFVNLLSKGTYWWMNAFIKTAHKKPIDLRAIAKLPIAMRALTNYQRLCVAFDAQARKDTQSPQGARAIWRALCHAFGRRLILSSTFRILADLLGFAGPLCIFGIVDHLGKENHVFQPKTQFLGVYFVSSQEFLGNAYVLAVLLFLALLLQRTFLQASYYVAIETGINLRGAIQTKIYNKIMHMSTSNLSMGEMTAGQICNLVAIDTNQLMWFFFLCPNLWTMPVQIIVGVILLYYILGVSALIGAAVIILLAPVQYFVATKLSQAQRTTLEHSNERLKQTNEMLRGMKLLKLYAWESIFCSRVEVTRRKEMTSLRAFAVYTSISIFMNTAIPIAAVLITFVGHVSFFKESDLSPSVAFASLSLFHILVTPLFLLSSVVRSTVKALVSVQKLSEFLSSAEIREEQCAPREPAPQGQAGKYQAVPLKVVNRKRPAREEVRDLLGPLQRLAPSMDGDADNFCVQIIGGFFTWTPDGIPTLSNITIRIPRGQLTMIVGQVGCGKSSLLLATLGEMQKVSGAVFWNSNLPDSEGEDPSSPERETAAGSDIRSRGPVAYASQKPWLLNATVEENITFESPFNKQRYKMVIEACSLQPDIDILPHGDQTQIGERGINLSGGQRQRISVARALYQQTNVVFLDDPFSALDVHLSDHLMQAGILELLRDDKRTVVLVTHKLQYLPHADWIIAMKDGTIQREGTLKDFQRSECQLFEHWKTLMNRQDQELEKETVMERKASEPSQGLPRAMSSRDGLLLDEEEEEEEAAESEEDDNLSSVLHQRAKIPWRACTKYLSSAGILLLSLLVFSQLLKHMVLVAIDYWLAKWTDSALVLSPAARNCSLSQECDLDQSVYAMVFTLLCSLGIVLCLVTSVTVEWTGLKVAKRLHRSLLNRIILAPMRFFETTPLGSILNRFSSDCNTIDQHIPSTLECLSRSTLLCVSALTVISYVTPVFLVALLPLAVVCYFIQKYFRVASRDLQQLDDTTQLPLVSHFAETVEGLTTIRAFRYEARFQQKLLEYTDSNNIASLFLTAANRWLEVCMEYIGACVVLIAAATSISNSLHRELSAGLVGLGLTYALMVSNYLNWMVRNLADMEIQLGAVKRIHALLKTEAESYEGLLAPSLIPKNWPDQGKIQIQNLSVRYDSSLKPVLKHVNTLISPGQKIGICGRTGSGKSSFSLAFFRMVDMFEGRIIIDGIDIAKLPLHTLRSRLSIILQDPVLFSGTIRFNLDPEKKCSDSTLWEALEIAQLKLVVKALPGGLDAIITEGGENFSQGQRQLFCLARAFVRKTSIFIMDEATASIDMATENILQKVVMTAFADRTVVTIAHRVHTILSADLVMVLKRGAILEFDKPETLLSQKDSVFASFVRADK
# T4 sequence (P70673 whole entry): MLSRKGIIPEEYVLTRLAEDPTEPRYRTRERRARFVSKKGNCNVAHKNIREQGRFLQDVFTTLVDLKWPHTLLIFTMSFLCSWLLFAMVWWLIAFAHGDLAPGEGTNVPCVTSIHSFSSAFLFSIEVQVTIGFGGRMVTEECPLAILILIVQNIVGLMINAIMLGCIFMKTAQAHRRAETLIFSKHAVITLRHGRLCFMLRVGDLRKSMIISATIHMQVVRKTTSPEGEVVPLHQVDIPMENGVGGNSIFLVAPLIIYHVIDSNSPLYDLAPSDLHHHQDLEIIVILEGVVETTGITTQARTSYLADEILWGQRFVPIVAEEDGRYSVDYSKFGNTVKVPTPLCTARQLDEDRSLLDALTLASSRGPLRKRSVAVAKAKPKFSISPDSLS
# T6 sequence (Q09427 whole entry K134A): as the sequence (Q09427 whole entry K134A) above
# T6 sequence (P70673 whole entry Q52R/R176A): as the sequence (P70673 whole entry) above, with Q52R, R176A counted along it
# T2 sequence (Q09427 whole entry): as the sequence (Q09427 whole entry K134A) above, with A134K counted along it
# T2 sequence (P70673 whole entry Q52R/R176A): as the sequence (P70673 whole entry) above, with Q52R, R176A counted along it
# T3 sequence (Q09427 whole entry): as the sequence (Q09427 whole entry K134A) above, with A134K counted along it
# T3 sequence (P70673 whole entry R176A): as the sequence (P70673 whole entry) above, with R176A counted along it
# T1 sequence (P70673 whole entry Q52R): as the sequence (P70673 whole entry) above, with Q52R counted along it
# T1 sequence (Q09427 whole entry): as the sequence (Q09427 whole entry K134A) above, with A134K counted along it
# T5 sequence (P70673 whole entry Q52R): as the sequence (P70673 whole entry) above, with Q52R counted along it
# T5 sequence (Q09427 whole entry K134A): as the sequence (Q09427 whole entry K134A) above
# T8 sequence (P70673 whole entry Q52R): as the sequence (P70673 whole entry) above, with Q52R counted along it
# T8 sequence (Q09427 whole entry W51C): as the sequence (Q09427 whole entry K134A) above, with W51C, A134K counted along it
# T7 sequence (P70673 whole entry): as the sequence (P70673 whole entry) above
# T7 sequence (Q09427 whole entry W51C): as the sequence (Q09427 whole entry K134A) above, with W51C, A134K counted along it
# T9 sequence (P70673 whole entry): as the sequence (P70673 whole entry) above
# T9 sequence (Q09427 whole entry): as the sequence (Q09427 whole entry K134A) above, with A134K counted along it
structure (smiles),measurement,setting,value
Nc1ncnc2c1ncn2[C@@H]1O[C@H](COP(=O)(O)OP(=O)(O)OP(=O)(O)O)[C@@H](O)[C@H]1O [ATP],% current,SUR1/Kir6.2^Q52R channel; ATP 10 μM,94.34%
same,% current,SUR1/Kir6.2^Q52R channel; ATP 100 μM,77.97%
same,% current,SUR1/Kir6.2^Q52R channel; ATP 200 μM,34.77%
same,% current,SUR1/Kir6.2^Q52R channel; ATP 1 mM,15.08%
same,% current,SUR1/Kir6.2^Q52R channel; ATP 2 mM,2.12%
same,% current,SUR1/Kir6.2^Q52R channel; ATP 5 mM,2.88%
same,Hill coefficient (H) of ATP inhibition,"SUR1/Kir6.2^Q52R channel; Hill fit, H allowed to vary",2.34
same,IC50,SUR1/Kir6.2^Q52R channel; [9],161 ± 16.2 µM
same,% current,[1]; ATP 1 μM,93.65%
same,% current,[1]; ATP 10 μM,70.34%
same,% current,[1]; ATP 100 μM,6.88%
same,% current,[1]; ATP 200 μM,3.51%
same,% current,[1]; ATP 1 mM,0.92%
same,% current,[1]; ATP 2 mM,0.12%
same,Hill coefficient (H) of ATP inhibition,"[1]; Hill fit, H allowed to vary",1.41
same,IC50,[1]; [9],18 ± 1.2 µM
same,% current,[2]; ATP 1 μM,83.45%
same,% current,[2]; ATP 10 μM,56.97%
same,% current,[2]; ATP 100 μM,7.94%
same,% current,[2]; ATP 1 mM,6.02%
same,% current,[2]; ATP 2 mM,1.48%
same,Hill coefficient (H) of ATP inhibition,"[2]; Hill fit, H allowed to vary",0.84
same,IC50,[2]; [9],11.3 ± 1.95 µM
same,% current,[3]; ATP 1 μM,90.28%
same,% current,[3]; ATP 10 μM,19.80%
same,% current,[3]; ATP 100 μM,5.33%
same,% current,[3]; ATP 200 μM,0.84%
same,% current,[3]; ATP 1 mM,0.93%
same,% current,[3]; ATP 2 mM,0.25%
same,Hill coefficient (H) of ATP inhibition,"[3]; Hill fit, H allowed to vary",1.54
same,IC50,[3]; [9],4.12 ± 0.3 µM
same,% current,[4]; ATP 1 μM,98.42%
same,% current,[4]; ATP 10 μM,90.13%
same,% current,[4]; ATP 100 μM,32.09%
same,% current,[4]; ATP 200 μM,5.40%
same,% current,[4]; ATP 1 mM,0.80%
same,% current,[4]; ATP 5 mM,0.06%
same,Hill coefficient (H) of ATP inhibition,"[4]; Hill fit, H allowed to vary",1.55
same,IC50,[4]; [9],54.1 ± 7.14 µM
same,% current,"[5]; ATP 1 μM, one cell",40.58%
same,% current,"[5]; ATP 10 μM, mean",44.57%
same,% current,"[5]; ATP 100 μM, mean",4.58%
same,% current,"[5]; ATP 1 mM, mean",-0.08%
same,% current,"[5]; ATP 5 mM, mean",0.00%
same,Hill coefficient (H) of ATP inhibition,"[5]; Hill fit, H allowed to vary",1.18
same,IC50,[5]; [9],8.3 ± 1.11 µM
same,% current,SUR1^W51C/Kir6.2 channel; ATP 1 μM,94.89%
same,% current,SUR1^W51C/Kir6.2 channel; ATP 10 μM,75.92%
same,% current,SUR1^W51C/Kir6.2 channel; ATP 100 μM,6.20%
same,% current,SUR1^W51C/Kir6.2 channel; ATP 200 μM,6.36%
same,% current,SUR1^W51C/Kir6.2 channel; ATP 1 mM,1.93%
same,% current,SUR1^W51C/Kir6.2 channel; ATP 2 mM,3.08%
same,% current,SUR1^W51C/Kir6.2 channel; ATP 5 mM,0%
same,IC50,SUR1^W51C/Kir6.2 channel; [9],20.9 ± 1.96 µM
same,% current,[6]; ATP 1 μM,97.59%
same,% current,[6]; ATP 10 μM,45.50%
same,% current,[6]; ATP 100 μM,6.41%
same,% current,[6]; ATP 1 mM,1.99%
same,% current,[6]; ATP 2 mM,0.62%
same,% current,[6]; ATP 5 mM,1.82%
same,IC50,[6]; [9],8.98 ± 0.49 µM
same,% current,[7]; ATP 1 μM,84.78%
same,% current,[7]; ATP 10 μM,39.13%
same,% current,[7]; ATP 100 μM,7.09%
same,% current,[7]; ATP 200 μM,3.13%
same,% current,[7]; ATP 1 mM,4.17%
same,% current,[7]; ATP 2 mM,0.65%
same,% current,[7]; ATP 5 mM,2.98%
same,Hill coefficient (H) of ATP inhibition,"[7]; Hill fit, H allowed to vary",0.93
same,IC50,[7]; [9],6.25 ± 0.44 µM
same,decrease in channel sensitivity to ATP inhibition,Kir6.2^Q52R KATP channel,20 fold
same,reduction of ATP inhibition IC50,[8],100 fold
